Like-named read-outs stand apart in the source and are kept apart here.
Columns and labels:
[1] = design: method as in Malla and Sommer, 2014; Kang et al., 2020; conditions: ref Malla and Sommer, 2014; Kang et al., 2020; cited from earlier work
[2] = biological target: T1, mushroom tyrosinase (A. bisporus) (Agaricus bisporus, UniProt C7FF04); assay: Dynamic dose-dependent tyrosinase inhibition study; assay type: biochemical
T1 construct: purchased Sigma-Aldrich and Worthington Biochemical Corp
Procedure: Respectively, the final concentration gradient of the test samples was set to be 200, 150, 75, 25, 5, and 1 μM. For OD measurements, the plate was read in the dynamic mode for 60 min with measurements recorded every minute, using the SpectraMax M3 plate reader at 475 nm and 490 nm. Forty-five seconds of shaking was also performed before first reading to retain method consistency.

Mushroom tyrosinase [3] = conditions: cited from earlier work
tyrosinase = biological target: T2, tyrosinase (Agaricus bisporus, UniProt C7FF04); assay: Isobologram / interaction index analysis of ScyM and KA; assay type: biochemical, A. bisporus; conditions: single compounds, determined again for the isobologram; read-out: IC50 (another round of dose-dependent assays)
T2 construct: purchased Sigma-Aldrich and Worthington Biochemical Corp
Text: Based on the derived equation, γ=∑i=2ndi/Di , where Di represents the dose of an individual drug to achieve 50% efficacy when acting alone, and di represents the dose of each drug in the compound mixture when the combined drug achieves 50% efficacy. Accordingly, when the interactions between drugs are synergistic, additive, and antagonistic, the corresponding values of γ are <1, = 1, and >1, respectively. Therefore, the smaller the index value, the stronger the synergistic effect.

[4] = system: NCI-H460 human lung carcinoma cell line; assay: MTT cytotoxicity assay; assay type: cell-based; conditions: H460 human lung cancer cells; no significant effect at concentration as high as 254 μM
Procedure: The cytotoxicity assay was performed using a protocol previously published ([Yu H.-B. et al., 2019]; [Leber et al., 2020]). Briefly, the MTT staining method was used to determine the cytotoxicity of compounds of interest using the NCI-H460 human lung carcinoma cell line purchased from ATCC (Manassas, VA, United States). The cells were grown in flasks and then seeded into wells at 3.33 × 10^4 cells/ml of Roswell Park Memorial Institute (RPMI-1640) medium with standard fetal bovine serum (FBS), leading to 180 μl/well. The cells were then pre-incubated for 24 h at 37°C in 96-well plates before drug was added. Thereafter, with addition of diluted compounds of interest dissolved in DMSO, plates were incubated for an additional 48 h and then stained with MTT (thiazolyl blue tetrazolium bromide 98%; Sigma-Aldrich) for 25 min, after which the optical densities (OD) were recorded at 630 and 570 nm for each well on a SpectraMax M3 plate reader (Molecular Devices, San Jose, CA, United States). Doxorubicin and 1% DMSO in RPMI-1640 without fetal bovine serum were used as positive and negative controls, respectively. Polyethylene glycol (PEG) was used to facilitate dissolution of compounds with limited solubility.

[5] = biological target: T1, mushroom tyrosinase (A. bisporus); assay: End-point colorimetric tyrosinase inhibition assay (broad screening); assay type: biochemical; conditions: within 20 minutes; 475 and 490 nm; blank with enzyme rises to ~0.100
Procedure: Four types of assay wells were designated for each screening plate (see Supplementary Figure S2 for visualization), in which the following reaction mixtures were added: A [Blank Control with Enzyme] contains 2 μl of DMSO, 118 μl of prepared 0.067 M sodium phosphate buffer and 40 μl of tyrosinase (100 units/ml) in the same buffer; B [Blank Control without Enzyme] contains 2 μl of DMSO and 158 μl of 0.067 M sodium phosphate buffer; C [Testing Material with Enzyme] contains 2 μl of sample (1 mg/ml in DMSO), 118 μl of 0.067 M sodium phosphate buffer and 40 μl of tyrosinase (100 Units/mL) in the same buffer; D [Testing Material without Enzyme] contains 2 μl of sample (1 mg/ml in DMSO) and 158 μl of 0.067 M sodium phosphate buffer. Samples were tested in triplicate.
The final test sample concentration was 10 μg/ml, while the final DMSO concentrations for both negative controls and samples kept ≤1%. […] Forty-five seconds of shaking was performed by the instrument before the wells were read.
The percentage inhibition of the tyrosinase activity was calculated by the equation: % Inhibition = {[(A − B) − (C − D)]/(A − B)} × 100, where A, B, C and D are all OD values from the corresponding wells at the same time point. It reflects the inhibitory strength of the testing material by comparing to the blank condition where no inhibitor is added.

[6] = Solubility of ScyM in the assay buffer system
mushroom tyrosinase [7] = biological target: T3, mushroom tyrosinase (Agaricus bisporus, UniProt C7FF04); assay: Kinetic analysis of tyrosinase and inhibitors (Lineweaver-Burk); assay type: biochemical, A. bisporus
T3 construct: purchased Sigma-Aldrich and Worthington Biochemical Corp
Procedure: The Lineweaver–Burk plot was generated using Graphpad Prism 9.2.0. Experiments were performed in triplicate.
A kinetic study was performed to better understand the tyrosinase inhibitory properties of ScyM. For this kinetic mode analysis, varying concentrations of substrate and inhibitor were used in the assays in order to generate Lineweaver–Burk plots. […] The Lineweaver–Burk plot (Figures 6A,B), also known as the double reciprocal plot, is commonly used to determine the mechanism of how an inhibitor is inhibiting an enzyme. […] Two inhibition parameters, the Michaelis–Menten constant (Km) and maximal velocity (Vmax), are also visualized in this plot. […] The apparent Km and Vmax values were calculated as an average of triplicate measurements and are provided with standard deviations (see Table 2).

[8] = mushroom tyrosinase, SD not given, ref Wu et al., 2013
[9] = mushroom tyrosinase, SD not given, ref Li et al., 2005
[10] = mushroom tyrosinase, ref Paudel et al., 2019
[11] = mushroom tyrosinase, SD not given, ref Sheng et al., 2018

T3 sequence (C7FF04 1-392): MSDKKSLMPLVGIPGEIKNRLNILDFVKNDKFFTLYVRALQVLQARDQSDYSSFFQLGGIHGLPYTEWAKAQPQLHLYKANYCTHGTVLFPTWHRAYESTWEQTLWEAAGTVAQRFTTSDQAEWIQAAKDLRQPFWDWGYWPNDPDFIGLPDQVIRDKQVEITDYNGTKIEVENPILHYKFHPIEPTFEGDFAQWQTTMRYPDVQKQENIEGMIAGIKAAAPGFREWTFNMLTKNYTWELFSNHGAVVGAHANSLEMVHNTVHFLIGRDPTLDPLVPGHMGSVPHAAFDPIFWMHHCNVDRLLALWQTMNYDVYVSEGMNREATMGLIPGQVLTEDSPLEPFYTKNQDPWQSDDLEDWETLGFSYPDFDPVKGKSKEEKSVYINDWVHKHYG
T1 sequence (C7FF04 1-392): as above
T2 sequence (C7FF04 1-392): as above

## scytonemin
[1]
  cytotoxicity: non-cytotoxic
[2]; all concentrations tested, from 1 up to 200 μM
  tyrosinase inhibition in dose-dependent assay: almost no inhibition

## CC(=O)O[C@@]12C[C@@H](C(C)(C)O)C[C@@H](OC(=O)c3ccccc3)[C@@]1(CO)[C@H](O)[C@H](O)C[C@@]2(C)OC(C)=O [4α,5α-Diacetoxy-9α-benzoyloxy-7βH-eudesman-1β,2β,11, 14-tetraol]
Mushroom tyrosinase [3]; [8]
  IC50: 22.3 µM

## COc1ccc(/C=C2/C(=O)Cc3c2[nH]c2ccccc32)cc1 [ScyM-OMe, O-Methyl Scytonemin Monomer]
[2]; 35 μM
  inhibition at 35 µM: ~1%

## CCCCCc1cccc(=O)o1 [6-n-Pentyl-α-pyrone]
Mushroom tyrosinase [3]; [9]
  IC50: 0.8 µM

## O=C1Cc2c([nH]c3ccccc23)/C1=C\c1ccc(O)cc1 [ScyM, scytonemin monomer]
tyrosinase
  IC50: 4.7 µM
[4]
  cytotoxicity: non-cytotoxic
[5]
  OD reading with tyrosinase enzyme: ~ 0.080
[6]; 0.067 M sodium phosphate buffer, ≤1% DMSO, precipitate seen at 75, 150 and 200 μM
  saturation point in the assay system: less than 75 μM
[6]; range of 0–10 μM
  dissolution in the assay buffer system: fully dissolves with no precipitate
Mushroom tyrosinase [7]; Lineweaver-Burk plot, L-Dopa substrate
  Inhibition mode: Mixed
Mushroom tyrosinase [7]; Table 3, this experiment
  Mechanism: Mixed
Mushroom tyrosinase [7]; apparent Vmax of tyrosinase with inhibitor, L-Dopa substrate, triplicate with SD
  Vmax (OD·min^−1): 5.98 ± 0.52 OD·min^−1
[2]
  IC50: 4.9 ± 0.3 µM
[2]; read-out: inhibition by crude ScyM
  inhibition at 25 µM: ~60%
[2]; read-out: inhibition by purified ScyM
  inhibition at 10 µM: ~60%

## Bis-(2,3,6-tribromo-4,5-dihydroxybenzyl methyl ether
Mushroom tyrosinase [3]; [10]
  IC50: 111 ± 4.95 µM
Mushroom tyrosinase [3]; ref Paudel et al., 2019
  Mechanism: Competitive

## Cc1ccc(C(C)C)c(OC(=O)/C=C/c2ccc(O)cc2)c1 [(E)-2-Isopropyl-5-methylphenyl-3-(4-hydroxyphenyl)acrylate]
Mushroom tyrosinase [3]; [11]
  IC50: 10.6 µM
Mushroom tyrosinase [3]; ref Sheng et al., 2018
  Mechanism: Mixed

## CC(=O)OC[C@]12[C@H](OC(C)=O)[C@H](O)C[C@H](C)[C@]1(OC(C)=O)[C@@H](OC(C)=O)[C@@H](C(C)(C)O)C[C@H]2OC(=O)c1ccccc1 [1β,5α,6α,14-Tetraacetoxy-9α-benzoyloxy-7β H-eudesman-2β,11-diol]
Mushroom tyrosinase [3]; [8]
  IC50: 14.8 µM

## COc1ccc(/C=C/C(=O)Oc2cc(OC)ccc2C(C)=O)cc1 [(E)-2-Acetyl-5-methoxyphenyl-3-(4-methoxyphenyl)acrylate]
Mushroom tyrosinase [3]; [11]
  IC50: 8.3 µM
Mushroom tyrosinase [3]; ref Sheng et al., 2018
  Mechanism: Mixed

## OCCc1c(Br)c(O)c(O)c(Br)c1Br [2,3,6-Tribromo-4,5-dihydroxybenzyl methyl alcohol]
Mushroom tyrosinase [3]; [10]
  IC50: 270.5 ± 2.04 µM
Mushroom tyrosinase [3]; ref Paudel et al., 2019
  Mechanism: Competitive

## O=C(O)c1cccc(-c2ccccc2)c1 [3-Phenylbenzoic acid (3-PBA), 3-Phenylbenzoic acid]
Mushroom tyrosinase [3]; mushroom tyrosinase, SD not given, ref Oyama et al., 2016
  IC50: 36.3 µM
Mushroom tyrosinase [3]; ref Oyama et al., 2016
  Mechanism: Mixed

## O=C1C=C2CC3(O)COc4cc(O)ccc4C3=C2C=C1O (stereo not drawn) [Brazilein]
Mushroom tyrosinase [3]; mushroom tyrosinase, ref Hridya et al., 2015
  IC50: 21200 µM
Mushroom tyrosinase [3]; ref Hridya et al., 2015
  Mechanism: Mixed

## O=C(O)c1ccc(C(=O)O)cc1 [Terephthalic acid]
Mushroom tyrosinase [3]; mushroom tyrosinase, ref Yin et al., 2011
  IC50: 26600 µM
Mushroom tyrosinase [3]; ref Yin et al., 2011
  Mechanism: Mixed

## O=C1Cc2c([nH]c3ccccc23)/C1=C\c1ccc(O)cc1 (hydrate or solvate) [ScyM, scytonemin monomer]
other
  melting point: > 210 °C

## C=C[C@]1(O)CC(NC=O)=CC1=O [Myrothenone A]
Mushroom tyrosinase [3]; [9]
  IC50: 6.6 µM

## O=c1cc(-c2ccccc2)oc2cc(O)c(O)c(O)c12 [Baicalein]
Mushroom tyrosinase [3]; mushroom tyrosinase, SD not given, ref Guo et al., 2018
  IC50: 110 µM
Mushroom tyrosinase [3]; ref Guo et al., 2018
  Mechanism: Mixed

## CC[C@H](C)[C@@H]1NC(=O)[C@H](Cc2ccc(O)cc2)N(C)C(=O)[C@H]([C@H](C)O)N2C(=O)[C@H](CC[C@H]2O)NC(=O)[C@H](CC(C)C)NC(=O)[C@@H](NC(=O)[C@H](CCC(N)=O)NC(=O)[C@H](CCc2ccc(O)cc2)NC(=O)[C@H](O)CO)[C@@H](C)OC1=O [oscillapeptin G]
Mushroom tyrosinase [3]; tyrosinase, post-conversion, ref Sano and Kaya, 1996
  IC50: ~100 µM
